Results: US20020192178A1, “Leguminous extract heavy-metal-scavenging anti-pollution agent” (L'OREAL, priority 2001, published 2002)

System: immortalized human keratinocytes (DK7-NR)
Assay: Protective effect against cadmium cytotoxicity, Neutral Red incorporation test
Assay type: cell-based
Conditions: cadmium chloride alone, 0% extract of maize, 24 hours; read-out: IC50 (concentration of CdCl2 inducing a 50% decrease in viability)
Experimental: Heavy metals such as cadmium, nickel, lead, mercury, etc. can cause cytotoxicity on the cells of various organs including the skin. The cytotoxic effect of cadmium on human keratinocytes in culture was evaluated by a technique for measuring the cell viability: the Neutral Red incorporation test (Culture Methods. 1984, 9, 7-9).
The study was performed on a monolayer culture of immortalized human keratinocytes (DK7-NR) by the Nestle research center. The cells are inoculated on D-3 in 96-well culture dishes at a rate of 25 000 cells/cm^2 in 100 µl of culture medium (medium defined without calf serum, NR2, Biofluids). The incubations are performed in an incubator at 37° C. in humid atmosphere enriched with 5% CO2.
The cells are treated [lacuna] 24 hours with increasing concentrations (0, 10, 25, 50, 75, 100, 150 and 200 μM) of cadmium chloride (CdC12) alone, so as to determine its cytotoxicity. In parallel, a treatment is performed under the same conditions, but in the presence of the extract of maize (Phytovityl® at 0.5% and 1%, non-cytotoxic concentrations for the cells). The incubations are performed in an incubator at 37° C., 5% CO2 in a humid atmosphere.
At the end of the contact period, the cell viability is determined by means of a Neutral Red (POS 55/006) incorporation test, with spectrophotometric reading at 500 nm. […]

## [Cl][Cd][Cl] [cadmium chloride]
  IC50: 37.7 µM
